Patent publication US10919941B2, “Functional lipid constructs” (KODE BIOTECH LIMITED, priority 2007, dated 2021)
No end group written: not given here.

How the values were obtained:
Type in all cases: cell-based, human
[1] = system: Miltenberger antibody positive sera; assay: BioVue AHG card column agglutination serology of modified red blood cells; design: key: 0 or ‘−’ no agglutination; 0 or ‘−’ no agglutination; 1+ or 3=very weak agglutination; 1+ or 3=very weak agglutination; 2+ or 5=weak agglutination; 2+ or 5=weak agglutination; 3+ or 8=moderate strong agglutination; 3+ or 8=moderate strong agglutination; 4+ or 10/12=strong agglutination; 4+ or 10/12=strong agglutination; 4+ or 10/12=strong agglutination; settings: construct 50 μg/ml
Procedure: Red blood cells are modified by mixing 1 part by volume of washed packed red blood cells with 1 part by volume of peptide-lipid construct dispersed at a concentration of 10 to 1000 pg/ml in cell media (Celpresol™).
(§1) The suspensions are either: • 1. incubated for 2 hours at 37° C. before being washed and suspended in a cell medium for serological analysis at a concentration of 0.8 to 3% (Method 1); or • 2. incubated for 3 to 4 hours at room temperature (circa 25° C.) followed by 18 hours at 4° C. before being washed and suspended in a cell medium for serological analysis at a concentration of 0.8 to 3% (Method 2).
(§2) Serological reactions are graded or scored by either of two established systems (0 or ‘−’ no agglutination, 1+ or 3=very weak agglutination, 2+ or 5=weak agglutination, 3+ or 8=moderate strong agglutination, 4+ or 10/12=strong agglutination)
Serological platforms used are Tube (addition of reagents and reactants into plastic or glass serology tubes and after appropriate incubations, washing and centrifugation observing reactions macroscopically by eye and a 10× magnification eyepiece and scoring) and BioVue™ (addition of reactants into cassettes containing beads (including some reactants) and after appropriate incubations and centrifugation observing the reaction patterns trapped within the Gel matrix). BioVue is the serological column agglutination platform of Ortho-Clinical Diagnostics. Diamed is the serological column agglutination platform of Diamed AG.

[2] = system: Miltenberger Antibody Positive Panel; assay: Reactivity of modified RBCs against the Miltenberger Antibody Positive Panel; design: key to score vs panel 15 TAP2 / score vs panel 4 T7202 / score vs panel 8 T5896 / score vs panel 2 T217 / score vs panel 3 T165 / score vs panel 14 TAP1 / score vs panel 10 Mia / score vs panel 11 Mur / score vs panel 12 Gam / score vs panel 6 T6025 / score vs panel 7 T8445 / score vs panel 9 MIII / score vs panel 13 BoxH / reactivity with Panel Serum #7 (T8445) / agglutination score, Panel Serum #7 (T8445): 0 or ‘−’ no agglutination; 0 or ‘−’ no agglutination; 1+ or 3=very weak agglutination; 1+ or 3=very weak agglutination; 2+ or 5=weak agglutination; 2+ or 5=weak agglutination; 3+ or 8=moderate strong agglutination; 3+ or 8=moderate strong agglutination; 4+ or 10/12=strong agglutination; 4+ or 10/12=strong agglutination; 4+ or 10/12=strong agglutination; settings: Table 8; construct 50 μg/ml
[3] = system: TAP1 serum (Taiwan Miltenberger antibody positive sample); assay: Anti-MUT serum (TAP1) reactivity of modified RBCs (saline and AHG); design: key: 0 or ‘−’ no agglutination; 0 or ‘−’ no agglutination; 1+ or 3=very weak agglutination; 1+ or 3=very weak agglutination; 2+ or 5=weak agglutination; 2+ or 5=weak agglutination; 3+ or 8=moderate strong agglutination; 3+ or 8=moderate strong agglutination; 4+ or 10/12=strong agglutination; 4+ or 10/12=strong agglutination; 4+ or 10/12=strong agglutination; settings: construct 50 μg/ml (2 hours, 37° C.)
Procedure: as §1, §2

[4] = system: antibody negative serums; assay: False positive reactions of modified RBCs with antibody negative serums/plasma; design: key to Reaction score BioVue AHG, PAC samples 1-46, 49, 50, 52, 53 / Reaction score BioVue AHG, PAC sample 47 / Reaction score BioVue AHG, PAC sample 48 / Reaction score BioVue AHG, PAC sample 51 / agglutination score, T series serum 2 / agglutination score, T series serum 42 / agglutination score, T series serum 63 / agglutination score, T series serum 62 / agglutination score, T series serum 7 / agglutination score, T series serum 20 / agglutination score, T series serum 48 / agglutination score, T series serum 22 / agglutination score, T series serum 39 / agglutination score, T series serum 23 / agglutination score, T series serum 30 / agglutination score, T series serum 4 / agglutination score, T series serum 31 / agglutination score, T series serum 44 / agglutination score, T series serum 61 / agglutination score, T series serum 18 / agglutination score, T series serum 21 / agglutination score, T series serum 28 / agglutination score, T series serum 55 / agglutination score, false positive serum T18 / agglutination score, false positive serum T21 / agglutination score, false positive serum T28 / agglutination score, false positive serum T55 / agglutination score, false positive serum T78 / agglutination score, false positive serum T92: 0 or ‘−’ no agglutination; 0 or ‘−’ no agglutination; 1+ or 3=very weak agglutination; 1+ or 3=very weak agglutination; 2+ or 5=weak agglutination; 2+ or 5=weak agglutination; 3+ or 8=moderate strong agglutination; 3+ or 8=moderate strong agglutination; 4+ or 10/12=strong agglutination; 4+ or 10/12=strong agglutination; 4+ or 10/12=strong agglutination
[5] = blood donor plasma, construct 50 μg/ml (2 hours, 37° C.)

Substance: M34: DOPE peptide-lipid construct: MUTK peptide SSQTNDKHKR, leader c, spacer CMG(2) (SSQTNDKHKRC; also: DOPE peptide-lipid construct via leader Cys, spacer CMG(2))
- BioVue score vs TAP1 [1]: 5
- BioVue score vs positive sample 2 T217 (T) [1]: 0
- BioVue score vs positive sample 3 T165 (Mur) [1]: 0
- BioVue score vs positive sample 4 T7202 (M) [1]: 0
- BioVue score vs positive sample 8 T5896 (M + K + Mur) [1]: 0
- score vs panel 2 T217 [2]: 0
- score vs panel 3 T165 [2]: 0
- score vs panel 4 T7202 [2]: 0
- score vs panel 8 T5896 [2]: 0
- score vs panel 14 TAP1 [2]: 3
- score vs panel 15 TAP2 [2]: 0
- Reactivity with anti-MUT serum TAP1 [3]: 5
- Reaction score BioVue AHG, PAC sample 47 [4, 5]: 0
- Reaction score BioVue AHG, PAC sample 48 [4, 5]: 3
- Reaction score BioVue AHG, PAC sample 51 [4, 5]: 5
- Reaction score BioVue AHG, PAC samples 1-46, 49, 50, 52, 53 [4, 5]: 0
- % False Positives ([4]; panel of blood donor plasma samples (PAC), BioVue AHG, construct 50 μg/ml): 3.8%

Substance: M35: DOPE peptide-lipid construct: MUTK peptide QTNDKHKRDT, leader c, spacer CMG(2) (QTNDKHKRDTC; also: DOPE peptide-lipid construct via leader Cys, spacer CMG(2))
- BioVue score vs TAP1 [1]: 5
- BioVue score vs positive sample 2 T217 (T) [1]: 0
- BioVue score vs positive sample 3 T165 (Mur) [1]: 0
- BioVue score vs positive sample 4 T7202 (M) [1]: 0
- BioVue score vs positive sample 8 T5896 (M + K + Mur) [1]: 0
- score vs panel 2 T217 [2]: 0
- score vs panel 3 T165 [2]: 0
- score vs panel 4 T7202 [2]: 0
- score vs panel 8 T5896 [2]: 0
- score vs panel 14 TAP1 [2]: 5
- score vs panel 15 TAP2 [2]: 0
- Reactivity with anti-MUT serum TAP1 [3]: 5
